Structures can show the parent of a compound that is named as a salt.
Columns and labels:
[1] = test system: rabbit blood platelet aggregation; assay: inhibition of collagen-induced platelet aggregation in rabbit platelet-rich plasma (turbidometric method of Born); type: cell-based; details: Oryctolagus cuniculus, collagen 10 to 15 μg/ml, 37° C., 3 min preincubation, read-out: I50 (concentration inhibiting platelet aggregation by 50 percent)
Description: Evaluation of the compounds of this invention for their activity against platelet aggregation was carried out according to a turbidometric method described by G. V. R. Born, Nature 194 927 (1962). Platelet aggregation was measured using platelet-rich plasma prepared from citrated blood which was collected from a carotid artery of male white rabbits of Japanese native kind. A suspension of collagen (bovine Achilles tendon collagen, Sigma) in saline was used to cause platelet aggregation. The aggregation of rabbit blood platelet was induced by adding the suspension of collagen to give 10 to 15 μg collagen per milliliter. At this time, the tests were conducted at 37° C. at levels of 4×10^5 platelet/mm^3. A solution of compounds of this invention in saline was added to the platelet-rich plasma. After three minutes of preincubation with the platelet-rich plasma, collagen was added to cause platelet aggregation. Percent inhibition was calculated by comparison with controls.
Using the above procedure, the compounds of this invention were compared to aspirin.
(§1) The concentration of the compound in micromoles inhibiting platelet aggregation by 50 percent (I50) and LD50 which was calculated by Litchfield-Wilcoxon method are shown in Table 1.

[2] = LD50 i.p. in mice, calculated by Litchfield-Wilcoxon method; details: mouse, in vivo, ip, read-out: ID50 (the source's name)
Description: as §1

| Compound | IC50 [1] [nM] | LD50 [2] [mg/kg] |
| --- | --- | --- |
| CC(=O)Oc1ccccc1C(=O)O [Aspirin, aspirin, reference compound] | 25000 | – |
| CN(C)CCOc1ccccc1CCc1ccccc1 [Example 1, 2-(2-dimethylaminoethoxy)bibenzyl hydrochloride] | 600 | 165 |
| CN(C)CCCOc1ccccc1CCc1ccccc1 [Example 2, 2-(3-dimethylaminopropoxy)bibenzyl hydrochloride] | 600 | – |
| CN(C)CCCCOc1ccccc1CCc1ccccc1 [Example 3, 2-(4-dimethylaminobutoxy)bibenzyl] | 600 | 215 |
| CN(C)CCCCCOc1ccccc1CCc1ccccc1 [Example 4, 2-(5-dimethylaminopentyloxy)bibenzyl] | 800 | 205 |
| CN(C)CCCCCCOc1ccccc1CCc1ccccc1 [Example 5, 2-(6-dimethylaminohexyloxy)bibenzyl] | 1000 | – |
| CNCCCCOc1ccccc1CCc1ccccc1 [Example 6, 2-(4-methylaminobutoxy)bibenzyl] | 7000 | – |
| CCCCN(C)CCCCOc1ccccc1CCc1ccccc1 [Example 7, 2-[4-(N-methyl-N-butylamino)butoxy]bibenzyl] | 3000 | – |
| CN(CCO)CCCCOc1ccccc1CCc1ccccc1 [Example 8, 2-{4-[N-methyl-N-(2-hydroxyethyl)amino]butoxy}bibenzyl] | 2000 | – |
| c1ccc(CCc2ccccc2OCCCCN2CCCCC2)cc1 [Example 9, 2-(4-piperidinobutoxy)bibenzyl] | 1000 | – |
| c1ccc(CCc2ccccc2OCCCCN2CCOCC2)cc1 [Example 10, 2-(4-morpholinobutoxy)bibenzyl] | 10000 | – |
| c1ccc(CCc2ccccc2OCCCCN2CCNCC2)cc1 [Example 11, 2-[4-(1-piperazinyl)butoxy]bibenzyl dihydrochloride] | 2000 | – |
| c1ccc(CCc2ccccc2OCCCCN2CCCC2)cc1 [Example 12, 2-[4-(1-pyrrolidinyl)butoxy]bibenzyl] | 700 | – |
| OCCN1CCN(CCCCOc2ccccc2CCc2ccccc2)CC1 [Example 13, 2-{4-[4-(2-hydroxyethyl)-1-piperazinyl]butoxy}bibenzyl] | 3000 | – |
| OCCN(CCO)CCCCOc1ccccc1CCc1ccccc1 [Example 14, 2-[4-bis(2-hydroxyethyl)aminobutoxy]bibenzyl] | 5000 | – |
| CCN(CC)CCOc1ccccc1CCc1ccccc1 [Example 15, 2-(2-diethylaminoethoxy)bibenzyl] | 500 | – |
| CCN(CC)CCCOc1ccccc1CCc1ccccc1 [Example 16, 2-(3-diethylaminopropoxy)bibenzyl] | 500 | 187 |
| CCN(CC)CCCCOc1ccccc1CCc1ccccc1 [Example 17, 2-(4-diethylaminobutoxy)bibenzyl] | 800 | – |
| CCN(CC)CCCCCOc1ccccc1CCc1ccccc1 [Example 18, 2-(5-diethylaminopentyloxy)bibenzyl] | 1000 | – |
| CCN(CC)CCCCCCOc1ccccc1CCc1ccccc1 [Example 19, 2-(6-diethylaminohexyloxy)bibenzyl] | 1000 | – |
| CN(C)CCCOc1ccc(CCc2ccccc2)cc1 [Example 20, 4-(3-dimethylaminopropoxy)bibenzyl] | 2000 | – |
| CN(C)CCCCOc1ccc(CCc2ccccc2)cc1 [Example 21, 4-(4-dimethylaminobutoxy)bibenzyl] | 2000 | – |
| Cl.O=C(O)C1CCN(CCCCOc2ccccc2CCc2ccccc2)CC1 [Example 22, 2-[4-(4-carboxypiperidino)butoxy]bibenzyl hydrochloride] | 5500 | 500 |
| NC(=O)C1CCN(CCCCOc2ccccc2CCc2ccccc2)CC1 [Example 24, 2-[4-(4-carbamoylpiperidino)butoxy]bibenzyl] | 1500 | 500 |
| NC(=O)C1CCN(CCOc2ccccc2CCc2ccccc2)CC1 [Example 25, 2-[2-(4-carbamoylpiperidino)ethoxy]bibenzyl] | 2500 | – |

| Compound | IC50 [1] [nM] | LD50 [2] [mg/kg] |
| --- | --- | --- |
| CN(C)C(=O)C1CCN(CCCCOc2ccccc2CCc2ccccc2)CC1 [Example 26, 2-[4-(4-dimethylcarbamoylpiperidino)butoxy]bibenzyl hydrochloride] | 3000 | – |
| CCNC(=O)C1CCN(CCCCOc2ccccc2CCc2ccccc2)CC1 [Example 27, 2-[4-(4-ethylcarbamoylpiperidino)butoxy]bibenzyl] | 2500 | – |
| NC(=O)C1CCCN(CCCCOc2ccccc2CCc2ccccc2)C1 (stereo not shown) [Example 29, 2-[4-(3-carbamoylpiperidino)butoxy]bibenzyl] | 1400 | 270 |
| NC(=O)C1CCN(CCCOc2ccccc2CCc2ccccc2)CC1 [Example 30, 2-[3-(4-carbamoylpiperidino)propoxy]bibenzyl] | 2000 | – |
| COc1ccccc1CCc1ccccc1OCCN(C)C [Example 31, 2-(2-dimethylaminoethoxy)-2'-methoxybibenzyl] | 600 | – |
| COc1ccccc1CCc1ccccc1OCCCCN(C)C [Example 32, 2-(4-dimethylaminobutoxy)-2'-methoxybibenzyl] | 900 | 250 |
| COc1cccc(CCc2ccccc2OCCCCN(C)C)c1 [Example 34, 2-(4-dimethylaminobutoxy)-3'-methoxybibenzyl] | 550 | 200 |
| COc1cccc(CCc2ccccc2OCCCCN2CCN(CCO)CC2)c1 [Example 35, 2-{4-[4-(2-hydroxyethyl)-1-piperazinyl]butoxy}-3'-methoxybibenzyl] | 1200 | – |
| CCOc1ccccc1CCc1ccccc1OCCCCN(CC)CC [Example 37, 2-(4-diethylaminobutoxy)-2'-ethoxybibenzyl] | 1000 | – |
| CN(C)CCCCOc1ccccc1CCc1ccccc1O [Example 38, 2-(4-dimethylaminobutoxy)-2'-hydroxybibenzyl] | 900 | 167 |
| COC(=O)c1ccccc1CCc1ccccc1OCCN(C)C [Example 41, 2-(2-dimethylaminoethoxy)-2'-methoxycarbonylbibenzyl] | 500 | 130 |
| CN(C)CCCOc1ccccc1CCc1ccc(Cl)cc1 [Example 44, 2-(3-dimethylaminopropoxy)-4'-chlorobibenzyl] | 600 | 185 |
| OCCN1CCN(CCCCOc2ccccc2CCc2ccc(Cl)cc2)CC1 [Example 45, 2-{4-[4-(2-hydroxyethyl)-1-piperazinyl]butoxy}-4'-chlorobibenzyl] | 3000 | – |
| Clc1ccc(CCc2ccccc2OCCCCN2CCCC2)cc1 [Example 46, 2-[4-(1-pyrrolidinyl)butoxy]-4'-chlorobibenzyl] | 1300 | – |
| CN(C)CCCCOc1ccccc1CCc1ccccc1Cl.Cl [Example 47, 2-(4-dimethylaminobutoxy)-2'-chlorobibenzyl hydrochloride] | 500 | 170 |
| CN(C)CCCCCCOc1ccccc1CCc1ccccc1Cl [Example 51, 2-(6-dimethylaminohexyloxy)-2'-chlorobibenzyl] | 800 | 250 |
| CN(C)CCCOc1ccccc1CCc1ccccc1Cl [Example 52, 2-(3-dimethylaminopropoxy)-2'-chlorobibenzyl] | 630 | – |
| CN(C)CCCOc1ccccc1CCc1ccc(Cl)c(Cl)c1.Cl [Example 54, 2-(3-dimethylaminopropoxy)-3',4'-dichlorobibenzyl hydrochloride] | 600 | 250 |
| CN(C)CCCCOc1ccccc1CCc1ccc(F)cc1 [Example 55, 2-(4-dimethylaminobutoxy)-4'-fluorobibenzyl] | 750 | 185 |
| NC(=O)C1CCN(CCCCOc2ccccc2CCc2ccc(F)cc2)CC1 [Example 56, 2-[4-(4-carbamoylpiperidino)butoxy]-4'-fluorobibenzyl] | 1300 | 450 |
| OC1CCN(CCCCOc2ccccc2CCc2ccc(F)cc2)CC1 [Example 58, 2-[4-(4-hydroxypiperidino)butoxy]-4'-fluorobibenzyl] | 1100 | – |
| Cc1ccccc1CCc1ccccc1OCCCCN(C)C [Example 61, 2-(4-dimethylaminobutoxy)-2'-methylbibenzyl] | 1100 | – |
| Cc1ccccc1CCc1ccccc1OCCCCN1CCC(C(N)=O)CC1 [Example 63, 2-[4-(4-carbamoylpiperidino)butoxy]-2'-methylbibenzyl] | 2000 | – |
| CN(C)CCCOc1ccccc1CCc1ccc(N(C)C)cc1 [Example 64, 2-(3-dimethylaminopropoxy)-4'-dimethylaminobibenzyl] | 350 | – |
| COc1cccc(CCc2ccccc2)c1OCCCCN(C)C [Example 67, 2-(4-dimethylaminobutoxy)-3-methoxybibenzyl] | 3000 | – |

Reference: US4323568A, “Pharmaceutically active (omega-aminoalkoxy)bibenzyls” (Mitsubishi Chemical Industries Limited, priority 1977, dated 1982)
